Data taken from patent US7799768B2, “Polymorphs of 3-O-(3′,3′-dimethylsuccinyl)betulinic acid di-N-methyl-D-glucamine” (priority 2005, dated 2010).
Converted amounts (≈) assume the structure as drawn.

Assays:
[1] = relative bioavailability of oral formulations in rats (plasma DSB free acid); format: in vivo, Sprague Dawley rats; settings: single oral 25 mg/kg; for Cmax: male, po
Description: The following study was conducted to compare the relative bioavailability of oral formulations prepared with DSB•2NMG Form I and amorphous DSB•2NMG.
Groups of four male Sprague Dawley rats with surgically implanted jugular cannulas were given a single oral 25 mg/kg dose of DSB•2NMG (Form I or amorphous) in one of six formulations: • Group 1: 10% hydroxypropyl-β-cyclodextrin solution of amorphous DSB•2NMG; • Group 2: 10% hydroxypropyl-β-cyclodextrin solution of DSB•2NMG Form I; • Group 3: Suspension of DSB•2NMG Form I in 0.5% carboxymethylcellulose; • Group 4: Solution of DSB•2NMG Form I in 1% ethanol/10% polyethylene glycol 400/89% water; • Group 5: Solution of DSB•2NMG Form I in 10% propylene glycol/90% water; and • Group 6: Solution of DSB•2NMG Form I in water.

physchem = settings: 25 °C, organic solvent or mixture, approximate solubility
[2] = male rats, carboxymethylcellulose, ethanol/PEG 400/water, propylene glycol/water and water formulations

C=C(C)[C@@H]1CC[C@]2(C(=O)O)CC[C@]3(C)[C@H](CC[C@@H]4[C@@]5(C)CC[C@H](OC(=O)CC(C)(C)C(=O)O)C(C)(C)[C@@H]5CC[C@]43C)[C@@H]12 [DSB•2NMG Form I, 3-O-(3′,3′-dimethylsuccinyl)betulinic acid di-N-methyl-D-glucamine]
area under the plasma concentration-time curve from time zero extrapolated to infinity (AUCINF) ([1]; male rats, 10% hydroxypropyl-β-cyclodextrin solution, average, 25 mg/kg): 23440 ng·h/mL
exposure to DSB free acid among Form I formulations ([1]; male rats, 10% propylene glycol/water vehicle, FIG. 9): greatest exposure
AUCINF, times greater than from Form I given in hydroxypropyl-β-cyclodextrin [1, 2]: 1.5-2 times
DSB free acid concentrations versus Form I given in 10% hydroxypropyl-β-cyclodextrin [1, 2]: greater
plasma concentration profile compared to amorphous DSB•2NMG formulation ([1]; male rats, hydroxypropyl-cyclodextrin formulation, FIG. 8): equivalent plasma concentration profiles
Cmax ([1]; Sprague-Dawley, rat, plasma, 25 mg/kg, solution in 1% ethanol/10% polyethylene glycol 400/water, average): 8490 ng/mL
Cmax ([1]; Sprague-Dawley, rat, plasma, 25 mg/kg, solution in 10% propylene glycol/water, average): 10400 ng/mL
Cmax ([1]; Sprague-Dawley, rat, plasma, 25 mg/kg, solution in water, average): 9770 ng/mL
Cmax ([1]; Sprague-Dawley, rat, plasma, 25 mg/kg, suspension in 0.5% carboxymethylcellulose, average): 8200 ng/mL
solubility (physchem; 1-butanol): < 3000 µg/mL
solubility (physchem; 1-propanol): ~5000 µg/mL (≈ 8.55 mM)
solubility (physchem; 2-butanol): < 3000 µg/mL
solubility (physchem; 2-propanol): < 3000 µg/mL
solubility (physchem; acetone): < 3000 µg/mL
solubility (physchem; dimethyl formamide): > 50000 µg/mL
solubility (physchem; ethanol): ~5000 µg/mL (≈ 8.55 mM)

C=C(C)[C@@H]1CC[C@]2(C(=O)O)CC[C@]3(C)[C@H](CC[C@@H]4[C@@]5(C)CC[C@H](OC(=O)CC(C)(C)C(=O)O)C(C)(C)[C@@H]5CC[C@]43C)[C@@H]12 [amorphous DSB•2NMG, 3-O-(3′,3′-dimethylsuccinyl)betulinic acid di-N-methyl-D-glucamine]
AUC(0-inf) ([1]; Sprague-Dawley, rat, plasma, male rats, 10% hydroxypropyl-β-cyclodextrin solution, average, read-out: area under the plasma concentration-time curve from time zero extrapolated to infinity (AUCINF)): 21500 ng·h/mL
